Earlier results on one compound are cited in publication PMC11431137, “[^68Ga]Ga-DOTAGA-Glu(FAPi)2 Shows Enhanced Tumor Uptake and Theranostic Potential in Preclinical PET Imaging” (Diagnostics, 2024).

Series [1] relates to FAP over PREP and DPP. Details: method as in PMID 38999044. The following applies: compared with DOTAGA.(SA.FAPi)2; cited from earlier work.
In series [2] the test system is FAP. Further details: method as in PMID 36980775. The note with it: cited from earlier work.

Regarding `N#C[C@@H]1CC(F)(F)CN1C(=O)CNC(=O)c1ccnc2ccc(OCCCCNC(=O)CC[C@H](NC(=O)CCC(C(=O)O)N3CCN(CC(=O)O)CCN(CC(=O)O)CCN(CC(=O)O)CC3)C(=O)NCCCCOc3ccc4nccc(C(=O)NCC(=O)N5CC(F)(F)C[C@H]5C#N)c4c3)cc12` (stereo partly drawn) [DOTAGA-Glu(FAPi)2, 2,2′,2″-(10-(4-(((S)-1,5-bis((4-((4-((2-((S)-2-Cyano-4,4-difluoropyrrolidin-1-yl)-2-oxoethyl)carbamoyl)quinolin-6-yl)oxy)butyl)amino)-1,5-dioxopentan-2-yl)amino)-1-carboxy-4-oxobutyl)-1,4,7,10-tetraazacyclododecane-1,4,7-triyl)triacetic acid], the “selectivity for FAP over PREP and DPP” value in series [1] is recorded as “higher selectivity than DOTAGA.(SA.FAPi)2”. The half-inhibitory concentration (IC50) in series [2] is 0.26 ± 0.04 nM.
